According to publication PMC10540603 (Biochemical and biophysical research communications, 2022):
Numbering of substitutions follows the chain as printed.

Experiments:
[1] = molecular target: T1, CquiOrco (Culex quinquefasciatus, UniProt Q309I4); assay: two-electrode voltage clamp, Xenopus oocytes; format: cell-based; conditions: agonist; coreceptor expressed alone; pH 7.6
T1 sequence (Q309I4 1-480): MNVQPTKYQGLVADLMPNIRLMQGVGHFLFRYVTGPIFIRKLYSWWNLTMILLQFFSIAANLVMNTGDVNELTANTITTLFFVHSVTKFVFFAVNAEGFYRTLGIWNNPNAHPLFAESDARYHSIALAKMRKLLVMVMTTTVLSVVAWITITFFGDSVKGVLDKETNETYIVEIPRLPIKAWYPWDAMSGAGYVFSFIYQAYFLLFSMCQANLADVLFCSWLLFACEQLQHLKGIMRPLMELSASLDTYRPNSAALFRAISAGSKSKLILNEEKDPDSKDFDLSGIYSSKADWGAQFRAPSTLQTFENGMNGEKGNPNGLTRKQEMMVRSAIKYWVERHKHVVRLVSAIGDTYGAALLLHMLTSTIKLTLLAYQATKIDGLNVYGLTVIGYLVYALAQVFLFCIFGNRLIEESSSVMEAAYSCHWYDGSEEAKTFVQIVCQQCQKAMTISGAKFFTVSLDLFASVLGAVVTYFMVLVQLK

[2] = molecular target: T2, CquiOR32/CquiOrco (Culex quinquefasciatus, UniProt A0A0K0KUF8); assay: two-electrode voltage clamp, Xenopus oocytes; format: cell-based; conditions: 1 mM source dose, -80 mV, pH 7.6
T2 sequence (A0A0K0KUF8 1-397): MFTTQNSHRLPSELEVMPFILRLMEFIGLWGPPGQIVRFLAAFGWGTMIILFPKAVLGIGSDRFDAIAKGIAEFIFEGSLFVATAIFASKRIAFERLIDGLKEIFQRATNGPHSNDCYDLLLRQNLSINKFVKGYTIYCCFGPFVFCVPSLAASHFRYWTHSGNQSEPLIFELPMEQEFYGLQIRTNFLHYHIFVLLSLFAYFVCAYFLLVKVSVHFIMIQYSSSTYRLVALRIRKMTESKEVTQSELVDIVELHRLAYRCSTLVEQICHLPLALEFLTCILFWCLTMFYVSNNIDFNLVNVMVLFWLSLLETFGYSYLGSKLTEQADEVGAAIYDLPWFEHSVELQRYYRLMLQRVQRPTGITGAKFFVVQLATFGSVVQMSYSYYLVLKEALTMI
T2 sequence (UPI0018E3CDA7 1-480 partner): T1 sequence (Q309I4 1-480) with K267E, V399I

**Q.** `CCn1c(SCC(=O)Nc2ccc(C(C)C)cc2)nnc1-c1ccncc1` [OLC12, 2-{[4-Ethyl-5-(4-pyridinyl)-4H-1,2,4-triazol-3-yl]sulfanyl}-N-(4-isopropylphenyl)acetamide] was tested. Which “two-electrode voltage clamp, Xenopus oocytes” value (from here on “two-electrode voltage clamp”) [1] did it give?
**A.** The value was “CquiOrco-expressing oocytes generated inward currents when challenged with OLC12”.

**Q.** With `CC12CCC(C1)C(C)(C)C2=O` (stereo not drawn) [fenchone] as the compound, how does the “two-electrode voltage clamp” value ([2]; inhibitor, outward currents) read?
**A.** Its value is “more prominent than the outward currents elicited by fenchone and eucalyptol”.

**Q.** Which “two-electrode voltage clamp” value ([2]; agonist, inward currents) does the source give for `COC(=O)c1ccccc1O` [methyl salicylate] here?
**A.** The value was “Methyl salicylate-elicited inward currents recorded with CquiOR32/CquiOrco-expressing oocytes”.
